Six compounds from patent EP4417602A1, “SUBSTITUTED PYRAZOLE CARBOXAMIDES, SALTS THEREOF AND THEIR USE AS HERBICIDALLY ACTIVE SUBSTANCES” (Bayer AG, priority 2023, dated 2024) can be followed below.

Assay [1] relates to VERPE. Put plainly: A. Herbicidal pre-emergence action on harmful plants (Tables A). Format: in vivo, Veronica persica. The note with it: application rate 1280 g/ha; Table A11. Summed up: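 Greenhouse pre-emergence test: compound applied to the soil surface at 1280 g/ha or below, and herbicidal effect rated visually at ca. 3 weeks on a 0–100% scale against untreated plants.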

The test system of assay [2] is ABUTH. The assay is described as follows: B. Herbicidal post-emergence action on harmful plants (Tables B). Type of assay: in vivo, Abutilon theophrasti. In outline:
(§1)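 Activity was scored visually as % damage (100% = dead, 0% = like untreated) about 3 weeks after treatment. Plants at the one-leaf stage, 2-3 weeks old, were sprayed with WP/EC formulations plus 0.5% additive (600 L/ha water, up to 1280 g/ha). Plants were grown in sandy loam in a greenhouse.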

For a further assay, the system named is POLCO. The assay is described as follows: C. Herbicidal pre-emergence action, weed and crop plants (Tables C). Type of assay: in vivo, Polygonum convolvulus. To be noted: application rate 320 g/ha; Table C9. The text has this: (§2) Seeds of mono- and dicotyledonous weed plants and crop plants were sown, in plastic or organic planting pots, in sandy loam and covered with soil. The compounds according to the invention, formulated in the form of wettable powders (WP) or as emulsifiable concentrates (EC), were applied to the surface of the covering soil as aqueous suspension or emulsion, with the addition of 0.5% of an additive, at an application rate of 6001 of water/ha (converted). Following treatment, the pots were placed in a greenhouse and kept under optimum growth conditions for the test plants. The visual grading of the damage to the test plants was carried out after ca. 3 weeks in comparison to untreated controls (herbicidal effect in percent (%): 100% effect = plants have died off, 0% effect = as control plants). Tables C1 to C12 below show the effects of selected compounds of the general formula (I) according to table 1 on various harmful plants and an application rate corresponding to 320 g/ha or below obtained by the experimental procedure mentioned above. Table C1: pre-emergence activity at 320g/ha against KCHSC in %

The subject of assay [3] is ABUTH. Put plainly: A. Herbicidal pre-emergence action on harmful plants (Tables A). Type of assay: in vivo, Abutilon theophrasti. The note with it: application rate 1280 g/ha; visual grading after ca. 3 weeks vs untreated controls; 100% = plants have died off, 0% = as control plants. From the text:
Seeds of mono- and dicotyledonous weed plants were sown in plastic pots (double sowings with one species of mono- and one species of dicotyledonous weed plants per pot), in sandy loam, and covered with soil. The compounds according to the invention, formulated in the form of wettable powders (WP) or as emulsifiable concentrates (EC), were applied to the surface of the covering soil as aqueous suspension or emulsion, with the addition of 0.5% of an additive, at an application rate of 6001 of water per hectare (converted). Following treatment, the pots were placed in a greenhouse and kept under optimum growth conditions for the test plants. The visual grading of the damage to the test plants was carried out after ca. 3 weeks in comparison to untreated controls (herbicidal effect in percent (%): 100% effect = plants have died off, 0% effect = as control plants). Tables A1 to A12, below, show the effects of selected compounds of the general formula (I) according to table 1 on various harmful plants and an application rate corresponding to 1280 g/ha or below obtained by the experimental procedure mentioned above. Table A1: pre-emergence activity at 1280g/ha against ABUTH in %

Assay [4] concerns MATIN. Put plainly: E. Herbicidal post-emergence action, weed and crop plants (Tables E). To be noted: application rate 320 g/ha, visual assessment after ca. 3 weeks. Type of assay: in vivo, Matricaria inodora. The text has this:
(§3) Seeds of mono- and dicotyledonous weed plants and crop plants were sown, in plastic or organic planting pots, in sandy loam, covered with soil and grown in a greenhouse under controlled growth conditions. 2 to 3 weeks after sowing, the test plants were sprayed in the single-leaf stage. The compounds according to the invention, formulated in form of wettable powders (WP) or as emulsifiable concentrates (EC), were sprayed onto the green plant parts as aqueous suspension or emulsion, with the addition of 0.5% of an additive, at an application rate of 6001 of water/ha (converted). The test plants were placed in the greenhouse for ca. 3 weeks under optimum growth conditions, and then the effect of the preparations was assessed visually in comparison with untreated controls (herbicidal effect in percent (%): 100% effect = plants have died off, 0% effect = as control plants). Tables E1 to E7 below show the effects of selected compounds of the general formula (I) according to table 1 on various harmful plants and an application rate corresponding to 320 g/ha or below obtained by the experimental procedure mentioned above. Table E1: post-emergence activity at 320g/ha against ALOMY in %

The subject of assay [5] is MATIN. The assay is described as follows: B. Herbicidal post-emergence action on harmful plants (Tables B). Format: in vivo, Matricaria inodora. The note with it: application rate 1280 g/ha; Table B4a. Summed up: as §1
Assay [6] deals with VERPE. The assay is described as follows: E. Herbicidal post-emergence action, weed and crop plants (Tables E). Type of assay: in vivo, Veronica persica. To be noted: application rate 320 g/ha, visual assessment after ca. 3 weeks.
Text: as §3

Another assay concerns AMARE. Put plainly: C. Herbicidal pre-emergence action, weed and crop plants (Tables C). Type of assay: in vivo, Amaranthus retroflexus. The note with it: application rate 320 g/ha; Table C3.
Text: as §2

Where [7] appears, read: application rate 320 g/ha, treated at the one-leaf stage, rated visually after about 3 weeks vs untreated controls, 100% = the plants have died, 0% = like control plants.
Setting [8] is: application rate 1280 g/ha, Table B1a.

Turning to `Cn1cc(C(=O)N2CCCC2Cc2ccccc2F)c(COc2ccccc2)n1` (racemic) [Example I-006], the “pre-emergence activity against VERPE” value in the assay on VERPE [1] is recorded as 100%. For the same compound, the “post-emergence activity against ABUTH” value in the assay with ABUTH [2] (setting [7]) and in the assay with ABUTH [2] (setting [8]) was 90% each time.
As to `C=C(c1ccccc1F)C1CCCN1C(=O)c1cn(C)nc1COC` (racemic) [Example I-023], the “pre-emergence activity against POLCO” value in the assay on POLCO turned out to be 80%.
As for `COCc1c(C(=O)N2CCCC2Cc2ccccc2Cl)cnn1C` (racemic) [Example I-170], the “pre-emergence activity against ABUTH” value in the assay on ABUTH [3] was found to be 90%. In addition, the “post-emergence activity against MATIN in %” value with MATIN [4] turned out to be 80%. Also, the “post-emergence activity against MATIN” value in the assay with MATIN [5] came to 90%.
For `COCc1nn(C)cc1C(=O)N1CCCC1Cc1ccccc1F` (single isomer, unassigned) [Example I-003], the “post-emergence activity against VERPE in %” value in the assay on VERPE [6] was determined as 80%. In the assay with AMARE, the “pre-emergence activity against AMARE” value is recorded as 90%. Also, the “post-emergence activity against ABUTH” value in the assay on ABUTH [2] (setting [7]) and in the assay with ABUTH [2] (setting [8]) was 90% in each case.
Take `COCc1nn(C)cc1C(=O)N1CCCC1C(O)c1ccccc1F` (single isomer, unassigned) [Example I-053]: in the assay on AMARE, the “pre-emergence activity against AMARE” value is listed as 90%.
`COCc1c(C(=O)N2CCCC2Cc2ccccc2F)cnn1C` (single isomer, unassigned) [Example I-157]: the “pre-emergence activity against VERPE” value in the assay with VERPE [1] was 90%.
